Data taken from publication PMC7700040, “Phytochemical Analysis, Anti-inflammatory, and Antioxidant Activities of Dendropanax dentiger Roots” (BioMed Research International, 2020).
≈ marks a conversion by molar mass, not a printed value.

Assays:
[1] = DPPH radical scavenging activity; details: mean ± SD (n = 3)
Protocol: Briefly, 150 μL of DPPH solution (dissolved 0.2 mM in methanol) was mixed with 50 μL of the sample at different concentrations. The mixture was stirred and incubated in the dark at 30°C for 30 min, and the absorbance was determined at 517 nm (Asample). The absorbance of a blank (Ablank) and negative control (Acontrol) composed of only the sample and DPPH solutions was also determined, respectively. The DPPH radical scavenging activity of the sample was calculated by the following equation: DPPHscavengingactivity = [1 − (Asample–Ablank)/Acontrol] × 100%. Vc was used as a positive control in this experiment.

[2] = ABTS radical scavenging activity; details: mean ± SD (n = 3)
Protocol: The ABTS radical scavenging activity of the sample was carried out using the method reported by Sun et al. with minor modification. Briefly, 1.76 mL of K2S2O8 (140 mM) and 100 mL of ABTS solution (7 mM) were mixed and stored in the dark at 25°C for 12 h. […] The absorbance of a blank (Ablank) and negative control (Acontrol) composed of only the sample and diluted ABTS^+ radical solutions was also determined, respectively. The ABTS radical scavenging activity of the sample was calculated by the following equation: […] = [1 - (Asample-Ablank)/Acontrol] × 100%. Vc was used as a positive control in this experiment.

## O=C1O[C@H]([C@@H](O)CO)C(O)=C1O [Vc, L-Ascorbic acid]
[1]
  IC50 DPPH assay: 6.0 ± 0.2 µg/mL (≈ 34.1 µM)
[2]
  IC50 ABTS assay: 1.2 ± 0.1 µg/mL (≈ 6.81 µM)
